Reference: patent publication US20160106802A1, “METHODS OF DIAGNOSING AND TREATING ASTHMA” (Alba Therapeutics Corporation, priority 2006, published 2016)
Entries after “also recorded” stand apart in the source; their conditions may differ. Ends that are not written are not given here.

Test system: zonulin receptor
Assay: In situ immunofluorescence microscopy of lung tissue sections with FITC-labeled peptides
Format: binding
Settings: mouse lung sections (4 μm, frozen blocks) incubated with FITC-labeled peptide; FIG. 1
Protocol: In situ immunofluorescence microscopy was used to establish the distribution of the zonulin receptor within the respiratory tract. Lung tissue sections (4 μm) made from frozen blocks were placed immediately on plain uncoated slides and incubated with either FITC-labeled FZI/0 (the zonulin synthetic peptide inhibitor that specifically binds to the zonulin receptor described in U.S. Pat. No. 6,458,925, Gly-Gly-Val-Leu-Val-Gln-Pro-Gly SEQ ID NO: 15) or FITC-labeled FZI/1 (a scrambled peptide described in U.S. Pat. No. 6,458,925, Val-Gly-Val-Leu-Gly-Arg-Pro-Gly SEQ ID NO: 25) The results are shown in FIG. 1.

| Sequence | immunofluorescence signal of FITC-labeled peptide bound to lung tissue sections |
| --- | --- |
| VGVLGRPG [FZI/1, a scrambled peptide described in U.S. Pat. No. 6,458,925, reference compound] | no signal was detected |
| GGVLVQPG [FZI/0] | Clusters of immunofluorescent FZI/0 particles were visualized; also recorded: Cluster of immunofluorescence FZI/0 particles were visualized |
